Experiments:
3T3-L1 adipocytes = assay: Insulin-induced glucose uptake by 3T3-L1 adipocytes after 4-HNE / H2O2 treatment (MRM); type: cell-based, mouse; details: 500 μM for 4 hour, then 100 nM insulin for 60 minutes
Protocol: 3T3-L adipocytes (1×10^6) were treated with either 500 μM of 4-HNE or H2O2 or combination of both for 4 hour and were then stimulated with 100 nM insulin for 60 minutes. The glucose uptake is measured by a specific MRM method.

GLUT4 = target: T1, GLUT4 (Homo sapiens, UniProt P14672); assay: HNE-induced GLUT4 carbonylation (K264-HNE adduct) by MRM in 3T3-L1 adipocytes overexpressing GLUT4-SNAP; type: cell-based; details: 20 μM for 4 hour, 3T3-L1 cells overexpressing GLUT4
T1 construct: SNAP (SNAP-tag fusion partner); expressed in transfected cells; host or cells: 3T3-L1 adipocytes, retrovirally transduced
T1 sequence (P14672 1-509): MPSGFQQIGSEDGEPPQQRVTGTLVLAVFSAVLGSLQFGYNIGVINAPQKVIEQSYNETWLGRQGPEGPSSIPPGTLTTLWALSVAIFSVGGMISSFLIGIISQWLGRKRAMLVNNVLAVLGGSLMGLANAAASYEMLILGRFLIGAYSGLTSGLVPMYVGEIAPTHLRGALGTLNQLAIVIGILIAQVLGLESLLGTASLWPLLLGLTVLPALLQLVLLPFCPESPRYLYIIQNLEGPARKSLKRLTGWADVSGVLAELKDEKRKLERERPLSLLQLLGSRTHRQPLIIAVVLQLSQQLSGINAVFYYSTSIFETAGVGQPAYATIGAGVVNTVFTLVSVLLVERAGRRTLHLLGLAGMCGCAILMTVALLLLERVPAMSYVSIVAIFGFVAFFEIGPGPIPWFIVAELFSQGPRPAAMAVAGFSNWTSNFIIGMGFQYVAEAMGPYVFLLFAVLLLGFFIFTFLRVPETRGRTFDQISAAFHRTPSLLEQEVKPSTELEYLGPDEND
Protocol: A GLUT4-SNAP fusion construct is generated. 3T3-L1 adipocytes were then retrovirally transduced with the construct to overexpress the GLUT4-SNAP protein. Twenty-four hours after the transduction, the cells were treated with and without 20 μM of 4-HNE for an additional 4 hours. This 4-HNE dose is chosen because it is similar to the physiological levels and is non-toxic. In order to identify and quantitate GLUT4 carbonylation (K264 NHE-adduct or R265 and R246 glutamic semialdehyde adducts), a mass spectroscopy-based multiple reaction monitoring (MRM) method is developed and validated.
[…] of the GLUT4 peptide found in humans were used for quantitation.

Structure (SMILES)	reduction of insulin-induced glucose uptake (3T3-L1 adipocytes)	formation of the K264-HNE adduct (GLUT4 carbonylation) (GLUT4)
CCCCCC(O)/C=C/C=O (stereo not drawn) [Example 4-HNE, 4-hydroxynonenal]	32%	induced the formation of the K264-HNE adduct
OO [Example H2O2]	66%	–
